Source: ChEMBL document CHEMBL1152152, “Quantitative structure-activity relationship of phenoxyphenyl-methanamine compounds with 5HT2A, SERT, and hERG activities” (Bioorg Med Chem Lett, 2008)
pIC50: −log10 of the molar value.

Columns and labels:
[1] = biological target: 5-hydroxytryptamine receptor 2A (Homo sapiens, UniProt P28223); test: Displacement of [3H]ketanserin from 5HT2A receptor
[2] = biological target: Sodium-dependent serotonin transporter (Homo sapiens, UniProt P31645); test: Inhibition of serotonin reuptake at SERT
Sequence of Sodium-dependent serotonin transporter (P31645 whole entry): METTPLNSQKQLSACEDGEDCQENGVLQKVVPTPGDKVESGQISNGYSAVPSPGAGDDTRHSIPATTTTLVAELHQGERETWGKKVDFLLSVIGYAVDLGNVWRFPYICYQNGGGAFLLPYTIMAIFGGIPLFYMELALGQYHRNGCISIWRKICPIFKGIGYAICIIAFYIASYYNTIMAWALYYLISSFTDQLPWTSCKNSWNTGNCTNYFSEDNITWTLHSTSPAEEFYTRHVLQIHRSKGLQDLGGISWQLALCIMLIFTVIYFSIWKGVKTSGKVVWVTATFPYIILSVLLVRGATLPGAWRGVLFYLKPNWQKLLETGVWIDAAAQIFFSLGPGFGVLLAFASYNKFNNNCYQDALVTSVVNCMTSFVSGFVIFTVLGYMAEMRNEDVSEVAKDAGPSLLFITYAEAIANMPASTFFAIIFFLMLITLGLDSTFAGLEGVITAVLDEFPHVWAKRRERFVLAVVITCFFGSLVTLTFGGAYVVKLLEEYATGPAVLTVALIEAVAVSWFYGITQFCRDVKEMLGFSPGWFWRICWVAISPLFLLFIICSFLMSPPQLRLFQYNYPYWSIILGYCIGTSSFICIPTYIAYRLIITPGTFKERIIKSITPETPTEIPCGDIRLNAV

[3] = biological target: Voltage-gated inwardly rectifying potassium channel KCNH2 (Homo sapiens, UniProt Q12809); test: Displacement of [3H]dofetilide from human ERG channel
Sequence of Voltage-gated inwardly rectifying potassium channel KCNH2 (Q12809 whole entry): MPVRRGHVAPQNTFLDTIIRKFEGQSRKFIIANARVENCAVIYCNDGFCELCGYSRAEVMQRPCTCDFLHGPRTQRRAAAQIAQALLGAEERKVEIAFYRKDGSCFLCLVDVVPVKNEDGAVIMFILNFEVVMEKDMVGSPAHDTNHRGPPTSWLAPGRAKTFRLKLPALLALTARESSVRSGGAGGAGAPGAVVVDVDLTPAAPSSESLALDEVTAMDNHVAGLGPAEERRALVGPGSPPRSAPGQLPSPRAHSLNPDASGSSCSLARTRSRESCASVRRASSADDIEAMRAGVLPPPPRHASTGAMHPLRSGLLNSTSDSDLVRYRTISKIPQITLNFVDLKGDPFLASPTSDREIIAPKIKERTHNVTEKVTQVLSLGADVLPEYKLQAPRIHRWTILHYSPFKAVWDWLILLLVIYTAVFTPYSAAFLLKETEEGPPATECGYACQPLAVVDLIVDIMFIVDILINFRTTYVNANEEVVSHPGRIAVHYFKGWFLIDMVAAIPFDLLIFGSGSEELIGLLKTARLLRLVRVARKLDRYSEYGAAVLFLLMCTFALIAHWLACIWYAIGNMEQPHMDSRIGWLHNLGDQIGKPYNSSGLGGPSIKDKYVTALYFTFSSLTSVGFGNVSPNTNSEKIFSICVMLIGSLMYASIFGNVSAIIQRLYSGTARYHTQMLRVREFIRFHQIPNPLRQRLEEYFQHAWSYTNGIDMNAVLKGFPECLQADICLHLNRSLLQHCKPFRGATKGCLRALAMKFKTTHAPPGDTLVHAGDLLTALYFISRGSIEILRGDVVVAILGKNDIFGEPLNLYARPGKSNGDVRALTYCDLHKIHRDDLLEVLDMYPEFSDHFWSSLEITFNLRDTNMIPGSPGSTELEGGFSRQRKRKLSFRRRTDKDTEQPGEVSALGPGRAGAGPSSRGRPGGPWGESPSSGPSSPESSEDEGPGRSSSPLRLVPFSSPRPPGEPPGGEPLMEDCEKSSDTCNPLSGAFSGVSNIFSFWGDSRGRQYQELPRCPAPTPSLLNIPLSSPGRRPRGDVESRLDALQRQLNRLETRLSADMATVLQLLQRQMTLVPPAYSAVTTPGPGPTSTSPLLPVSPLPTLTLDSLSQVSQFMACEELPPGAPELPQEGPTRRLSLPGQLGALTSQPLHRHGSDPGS

Sequence of 5-hydroxytryptamine receptor 2A (P28223 whole entry): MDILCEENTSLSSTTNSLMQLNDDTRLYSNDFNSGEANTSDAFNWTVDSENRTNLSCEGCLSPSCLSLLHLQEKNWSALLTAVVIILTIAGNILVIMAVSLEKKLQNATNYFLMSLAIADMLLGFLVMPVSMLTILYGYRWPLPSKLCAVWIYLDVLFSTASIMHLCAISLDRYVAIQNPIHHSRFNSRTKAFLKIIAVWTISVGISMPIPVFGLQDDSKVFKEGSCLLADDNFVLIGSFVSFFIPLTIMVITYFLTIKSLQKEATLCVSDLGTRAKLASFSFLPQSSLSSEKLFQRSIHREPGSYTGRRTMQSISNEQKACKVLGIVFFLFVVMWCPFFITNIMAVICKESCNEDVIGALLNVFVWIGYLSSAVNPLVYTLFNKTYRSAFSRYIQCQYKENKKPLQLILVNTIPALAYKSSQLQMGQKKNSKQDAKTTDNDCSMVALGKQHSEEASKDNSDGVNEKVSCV

Row | SMILES | pIC50 [1] | pIC50 [2] | pIC50 [3]
1 | CNCc1ccc(C(F)(F)F)cc1Oc1ccc(Cl)cc1 | 6.49 | 7.51 | 5.29
2 | CNCc1cc(Br)ccc1Oc1ccc(Cl)c(Cl)c1 | 6.10 | 8.32 | 
3 | CNCc1ccc(C#N)cc1Oc1ccc(Cl)c(Cl)c1 | 6.50 |  | 5.88
4 | CNCc1ccccc1Oc1ccc(Cl)c(Cl)c1 | 6.14 | 8.40 | 
5 | CNCc1cc(S(=O)(=O)NC)ccc1Oc1ccc(Cl)c(Cl)c1 | 5.25 | 8.03 | 5.32
6 | CCc1cc(Oc2ccc(F)cc2CNC)ccc1Cl | 6.56 | 8.26 | 
7 | CN(C)Cc1ccccc1Oc1ccc(Cl)cc1 | 5.70 | 8.77 | 
8 | CNCc1ccc(C(F)(F)F)cc1Oc1ccc(Cl)c(Cl)c1 | 6.44 | 7.53 | 
9 | CNCc1cc(C(N)=O)ccc1Oc1ccc(Cl)c(Cl)c1 | 5.81 | 8.42 | 5.26
10 | CNCc1cc(F)ccc1Oc1ccc(-c2ccccc2)cc1 | 6.42 | 7.54 | 
11 | CNCc1ccccc1Oc1ccc(Cl)cc1 | 5.98 | 7.86 | 
12 | CN(C)Cc1cc(N)ccc1Oc1ccc(Cl)c(Cl)c1 | 6.14 | 8.30 | 
13 | CNCc1cc(F)ccc1Oc1ccc(Cl)c(F)c1 | 5.70 | 7.71 | 
14 | CNCc1cc(F)ccc1Oc1ccccc1 | 6.17 | 6.42 | 
15 | CNCc1cc(C(F)(F)F)ccc1Oc1ccc(Cl)c(Cl)c1 | 5.74 | 7.66 | 
16 | CSc1ccc(Oc2ccccc2CN(C)C)cc1 | 6.34 | 9.00 | 5.52
17 | CNCc1cc(F)ccc1Oc1ccc(Cl)cc1 | 6.31 | 8.02 | 
18 | CNCc1cc(C#N)ccc1Oc1ccc(Cl)c(Cl)c1 | 5.50 | 8.60 | 5.34
19 | CNCc1ccc(F)cc1Oc1ccc(Cl)c(Cl)c1 | 6.19 | 7.44 | 
20 | Cc1ccc(Oc2ccc(Cl)c(Cl)c2)c(CN(C)C)c1 | 6.42 | 8.63 | 5.47
21 | CN(C)Cc1ccccc1Oc1ccc(F)c(F)c1 | 6.00 | 7.46 | 
22 | CNCc1cc(F)ccc1Oc1ccc(F)c(Cl)c1 | 6.24 | 7.43 | 
23 | CNC(C)c1cc(C(F)(F)F)ccc1Oc1ccc(Cl)c(Cl)c1 (configuration not stated) | 6.54 | 7.21 | 5.52
24 | CNCc1cc(Cl)ccc1Oc1ccc(Cl)c(Cl)c1 | 6.37 | 8.24 | 
25 | CNC(C)c1cc(F)ccc1Oc1ccc(Cl)c(Cl)c1 (configuration not stated) | 6.52 | 8.09 | 
26 | CNCc1cc(OC)ccc1Oc1ccc(Cl)c(Cl)c1 | 5.84 | 8.42 | 
27 | CNC(C)c1ccccc1Oc1ccc(Cl)c(Cl)c1 (configuration not stated) | 6.42 | 7.64 | 
28 | CNCc1cc(OC)c(OC)cc1Oc1ccc(Cl)c(Cl)c1 | 6.60 | 7.85 | 
29 | CN(C)Cc1cc(CC(N)=O)ccc1Oc1ccc(Cl)c(Cl)c1 | 5.65 | 8.61 | 

Stronger by pIC50 [1], values ahead:

Row | pIC50 [1] | pIC50 [2] | SMILES | pIC50 [3]
30 | 8.17 | 6.94 | CNC(C)c1ccc(Cl)cc1Oc1ccc(C)c(C)c1 (configuration not stated) | 
31 | 6.84 | 9.46 | CN(C)Cc1ccccc1Oc1ccc(Cl)c(Cl)c1 | 
32 | 7.10 | 8.05 | CNCc1cc(C)c(C)cc1Oc1ccc(Cl)c(Cl)c1 | 5.83
33 | 7.06 | 7.39 | CNC(C)c1ccc(OC)cc1Oc1ccc(Cl)c(Cl)c1 (configuration not stated) | 
34 | 7.31 | 7.11 | CNCc1ccc(Cl)cc1Oc1cccc(Cl)c1 | 5.68
35 | 7.29 | 8.01 | CNCc1cc(Cl)ccc1Oc1ccc(C)c(C)c1 | 
36 | 8.04 | 8.37 | CNCc1ccc(Cl)cc1Oc1ccc(Cl)c(C)c1 | 
37 | 7.43 | 8.44 | COc1ccc(CN(C)C)c(Oc2ccc(Cl)c(Cl)c2)c1 | 
38 | 7.48 | 7.51 | CNCc1ccc(Cl)cc1Oc1ccc(F)c(C)c1 | 
39 | 7.28 | 8.12 | CNCc1cc(F)ccc1Oc1ccc(C)c(C)c1 | 
40 | 7.13 | 8.46 | Cc1ccc(Oc2ccccc2CN(C)C)cc1 | 
41 | 8.93 | 7.77 | CNCc1ccc(Cl)cc1Oc1ccc(C)cc1 | 
42 | 7.04 | 8.13 | CNCc1cc(Cl)ccc1Oc1ccc(Cl)cc1 | 
43 | 6.64 | 8.36 | CNCc1cc(F)c(Cl)cc1Oc1ccc(Cl)c(Cl)c1 | 
44 | 7.24 | 7.06 | CNCc1ccc(Cl)cc1Oc1ccc(Cl)c(F)c1 | 5.91
45 | 7.05 | 8.21 | CNCc1ccc(Cl)cc1Oc1ccc(Cl)c(Cl)c1 | 
46 | 8.47 | 8.33 | CNCc1ccc(Cl)cc1Oc1ccc(C)c(C)c1 | 
47 | 8.04 | 8.38 | CNCc1ccc(Cl)cc1Oc1ccc(C)c(Cl)c1 | 

Row | pIC50 [1] | pIC50 [2] | SMILES | pIC50 [3]
48 | 7.38 | 7.77 | CN(C)Cc1ccc(C(F)(F)F)cc1Oc1ccc(Cl)c(Cl)c1 | 
49 | 6.76 | 7.40 | CNC(C)c1cc(C)ccc1Oc1ccc(Cl)c(Cl)c1 (configuration not stated) | 
50 | 7.06 | 8.49 | CC(c1ccccc1Oc1ccc(Cl)c(Cl)c1)N(C)C (configuration not stated) | 
51 | 7.33 | 7.68 | CCc1cc(Oc2cc(Cl)ccc2CNC)ccc1Cl | 5.94
52 | 7.18 | 8.29 | CNCc1ccc(Br)cc1Oc1ccc(Cl)c(Cl)c1 | 
53 | 7.26 | 7.03 | CNC(C)c1ccccc1Oc1ccc(C)cc1 (configuration not stated) | 
54 | 6.98 | 8.06 | CNCc1ccc(OC)cc1Oc1ccc(Cl)c(Cl)c1 | 
55 | 7.46 | 7.13 | CNCc1cc(C(F)(F)F)ccc1Oc1ccc(C)cc1 | 4.98
56 | 7.22 | 7.60 | CNCc1ccc(Cl)cc1Oc1ccc(F)c(Cl)c1 | 
57 | 6.75 | 7.25 | CNC(C)c1ccccc1Oc1ccc(Cl)cc1 (configuration not stated) | 
58 | 7.13 | 8.35 | CNCc1cc(F)c(OC)cc1Oc1ccc(Cl)c(Cl)c1 | 
59 | 8.18 | 8.04 | CNCc1ccc(Cl)cc1Oc1ccc(Cl)cc1 | 
60 | 7.31 | 8.01 | CNCc1ccc(Cl)cc1Oc1ccc(F)c(C(F)(F)F)c1 | 6.06
61 | 7.18 | 7.89 | CNCc1ccccc1Oc1ccc(C)c(C)c1 | 
62 | 6.69 | 8.48 | CNCc1cc(F)ccc1Oc1ccc(Cl)c(Cl)c1 | 
63 | 8.45 | 6.73 | CNC(C)c1ccc(Cl)cc1Oc1ccc(C)cc1 (configuration not stated) | 5.43
64 | 6.69 | 7.46 | CNC(C)c1cc(F)ccc1Oc1ccc(Cl)cc1 (configuration not stated) | 
